Eleven compounds from patent US20050228180A1, “Alpha, omega-dicarboximide derivatives as useful uro-selective a1a adrenoceptor blockers” (priority 2002, published 2005) can be followed below.

Broadly, the pKi is the Ki on a negative log10 scale, so that one unit is a factor of ten.

For one assay, the target named is T1, α1A adrenoceptor (Rattus norvegicus, UniProt P43140).
T1 construct: from tissue; host or cells: rat submaxillary gland membranes
T1 sequence (P43140 1-466): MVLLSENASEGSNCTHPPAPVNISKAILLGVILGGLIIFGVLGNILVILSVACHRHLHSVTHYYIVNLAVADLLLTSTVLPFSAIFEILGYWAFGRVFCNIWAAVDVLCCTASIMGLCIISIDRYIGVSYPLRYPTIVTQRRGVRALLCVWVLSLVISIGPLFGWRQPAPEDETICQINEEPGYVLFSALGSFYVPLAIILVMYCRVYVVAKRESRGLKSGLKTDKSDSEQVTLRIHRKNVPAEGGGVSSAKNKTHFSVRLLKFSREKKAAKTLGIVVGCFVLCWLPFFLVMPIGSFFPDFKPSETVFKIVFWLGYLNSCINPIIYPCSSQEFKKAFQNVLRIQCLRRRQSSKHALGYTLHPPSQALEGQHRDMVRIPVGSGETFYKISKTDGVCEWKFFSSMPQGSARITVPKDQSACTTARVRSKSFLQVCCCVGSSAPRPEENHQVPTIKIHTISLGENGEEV
Nature of the assay: Radioligand binding, [3H] prazosin displacement, rat submaxillary membranes. To be noted: for pKi: [3H] prazosin displacement, rat submaxillary membranes, read-out: Affinity (Ki) α1A (Rat Submaxillary); for α1B/α1A: ratio of binding affinities, rat liver / rat submaxillary. How it is done: (§1) Receptor binding assays were performed using native a-adrenoceptors. The affinity of different compounds for α1A and α1B adrenoceptor subtypes was evaluated by studying their ability to displace specific [^3H] prazosin binding from the membranes of rat submaxillary and liver respectively (Michel et al., Br J Pharmacol, 1989: 98:883). The binding assays were performed according to U+Prichard et al. (Eur J Pharmacol, 1978; 50:87 with minor modifications.
(§2) Submaxillary glands were isolated immediately after sacrifice. The liver was perfused with buffer (Tris HCl 50 mM, NaCl 100 mM, 10 mM EDTA pH 7.4). The tissues were homogenised in 10 volumes of buffer (Tris HCl 50 mM, NaCl 100 mM, 10 mM EDTA pH 7.4). The homogenate was filtered through two layers of wet gauge and filtrate was centrifuged at 500 g for 10 min. The supernatant was subsequently centrifuged at 40,000 g for 45 min. The pellet thus obtained was resuspended in the same volume of assay buffer (Tris HCl 50 mM, 5 mM EDTA pH 7.4) and was stored at −70° C. until the time of assay.
(§3) The membrane homogenates (150-250 μg protein) were incubated in 250 μl of assay buffer (Tris HCl 50 mM, EDTA 5 mM, pH 7.4) at 24-25° C. for 1 hour. Non specific binding was determined in the presence of 300 nM prazosin. The incubation was terminated by vacuum filtration over GF/B fibre filters. The filters were then washed with ice cold 50 mM Tris HCl buffer (pH 7.4). The filtermats were dried and bound radioactivity retained on filters was counted. The IC50 and Kd were estimated by using the non-linear curve-fitting program using G Pad Prism software. The value of inhibition constant Ki was calculated from competitive binding studies by using Cheng & Prusoff equation (Cheng & Prusoff, Biochem Pharmacol, 1973, 22: 3099-3108), Ki=IC50/(1+L/Kd) where L is the concentration of [^3H] prazosin used in the particular experiment (Table 1).

The target of another assay is T2, α1B adrenoceptor (Rattus norvegicus, UniProt P15823).
T2 construct: from tissue; host or cells: rat liver membranes
T2 sequence (P15823 1-515): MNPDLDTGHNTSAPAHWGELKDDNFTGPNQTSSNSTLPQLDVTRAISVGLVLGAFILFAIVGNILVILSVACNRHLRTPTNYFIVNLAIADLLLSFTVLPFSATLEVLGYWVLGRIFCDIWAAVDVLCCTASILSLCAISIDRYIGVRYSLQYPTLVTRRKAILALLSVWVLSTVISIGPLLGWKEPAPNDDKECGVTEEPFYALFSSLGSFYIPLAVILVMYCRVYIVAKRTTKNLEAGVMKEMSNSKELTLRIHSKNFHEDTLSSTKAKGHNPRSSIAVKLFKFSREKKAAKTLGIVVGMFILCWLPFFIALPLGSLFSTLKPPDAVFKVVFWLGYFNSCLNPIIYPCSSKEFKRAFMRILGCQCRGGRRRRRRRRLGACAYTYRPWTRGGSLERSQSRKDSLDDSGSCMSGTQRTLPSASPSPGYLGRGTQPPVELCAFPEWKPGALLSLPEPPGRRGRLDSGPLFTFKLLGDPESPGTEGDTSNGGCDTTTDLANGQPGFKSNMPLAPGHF
Nature of the assay: Radioligand binding, [3H] prazosin displacement, rat liver membranes. To be noted: read-out: Affinity (Ki) α1B (Rat Liver). On the procedure:
as §1, §2, §3

pKi: −log10 of the molar value. Structures can show the parent of a compound that is named as a salt. Bounds are passed on as bounds.

With `CC(C)Oc1ccccc1N1CCN(C(=O)CCN2C(=O)CCCC2=O)CC1.Cl` [Compound No. 49, 1-[4(2-Isopropoxyphenyl)piperazin-1-yl]-1-oxo-3-(2,6-dioxopiperidin-1-yl)propane hydrochloride], at α1A adrenoceptor, the pKi is less than 6.00 and the α1B/α1A came to 1. Further, on α1B adrenoceptor, the pKi was less than 6.00.
For the compound `CC(C)Oc1ccccc1NCCN(CC=O)CCCN1C(=O)C2CC=CCC2C1=O` (stereo not drawn) [Compound No. 50, 2-[N-{N′-(2-Isopropoxyphenyl)aminoethyl}acetaldehyde-aminopropyl]-3a,4,7,7a-tetrahydro-1H-isoindole-1,3(2H)-dione], on α1A adrenoceptor, the negative logarithm of the Ki (pKi) is 7.33 and the α1B/α1A is more than 21. Besides, on α1B adrenoceptor, the pKi was less than 6.00.
Taken in the same sequence, the figures for `CC(C)Oc1ccccc1N(CCO)CCN(CCO)CCCN1C(=O)C2CC=CCC2C1=O` (stereo not drawn) [Compound No. 51] were 6.18, more than 23 and less than 4.82.
Turning to `CCOC(=O)CN(CCCN1C(=O)C2CC=CCC2C1=O)CCNc1ccccc1OC(C)C` (stereo not drawn) [Compound No. 52, 2-[N-{N′-(2-Isopropoxyphenyl)aminoethyl}ethylacetate-aminopropyl]-3a,4,7,7a-tetrahydro-1H-isoindole-1,3(2H)-dione], the pKi was 6.45 at α1A adrenoceptor and less than 4.82 on α1B adrenoceptor. In addition, the α1B/α1A on α1A adrenoceptor is more than 43.
With `CC(C)Oc1ccccc1NCCN(C=O)CCCN1C(=O)C2CC=CCC2C1=O` (stereo not drawn) [Compound No. 53, 2-[N-{N′-(2-Isopropoxyphenyl)aminoethyl}formylaminopropyl]-3a,4,7,7a-tetrahydro-1H-isoindole-1,3(2H)-dione], on α1A adrenoceptor, the pKi is 7.13 and the α1B/α1A is more than 203. The pKi at α1B adrenoceptor is less than 4.82.
`CC(C)Oc1ccccc1N1CCN(CCCN2C(=O)C3CC=CCC3C2=O)CC1=O` (stereo not drawn) [Compound No. 54]: the figures for the pKi at α1A adrenoceptor and on α1B adrenoceptor were 5.14 and less than 4.82, respectively. In addition, the α1B/α1A at α1A adrenoceptor is reported as more than 2.
Taken in the same sequence, the figures for `COc1ccccc1[N+]1([O-])CCN(CCCN2C(=O)CCCC2=O)CC1` [Compound No. 55, 1-[4-(2-Methoxyphenyl)piperazin-1-yl-4-N-oxide]-3-(2,6-dioxopiperidin-1-yl]propane] were 7.14, 5.44 and 51.
The matching figures for `COc1ccccc1NCCNCCCN1C(=O)CCCC1=O` [Compound No. 56, 1-[N-{N′-(2-Methoxyphenyl)aminoethyl}]-3-(2,6-dioxopiperidin-1-yl)aminopropane hydrochloride]: less than 7.00, 6.00 and more than 10.
On to `COc1ccccc1NCCNCCCN1C(=O)CCCC1=O.Cl` [Compound No. 57, 1-[N—N-{N′-(2-Methoxyphenyl)aminoethyl}]-3-(2,6-dioxopiperidin-1-yl)aminopropane hydrochloride], for which, on α1A adrenoceptor, the pKi is less than 6.00 and the α1B/α1A stood at 1. For the same compound, the pKi at α1B adrenoceptor is less than 6.00.
As for `CC(=O)Nc1ccc(N2CCN(CCCN3C(=O)C4CC=CCC4C3=O)CC2)c(OC(C)C)c1.Cl` (stereo not drawn) [Compound No. 58, 2-[3-{4-(2-Isopropoxy-4-acetylaminophenyl)piperazin-1-yl}propyl]-3a,4,7,7a-tetrahydro-1H-isoindole-1,3(2H)-dione hydrochloride], at α1A adrenoceptor, the pKi was 6.80 and the α1B/α1A is given as 10. Further, the pKi on α1B adrenoceptor was less than 6.00.
The matching figures for `CC(C)Oc1ccccc1N1CCN(CCCN2C(=O)C3=CC=CCC3C2=O)CC1.Cl` (stereo not drawn) [Compound No. 59, 2-[3-{4-(2-Isopropoxyphenyl)piperazin-1-yl}propyl]-7,7a-dihydro-1H-isoindole-1,3(2H)-dione hydrochloride]: 8.64, 21 and 7.32.
